In patent US8318792B2, “Therapeutic agent for amyotrophic lateral sclerosis” (Nippon Medical School Foundation, priority 2006, dated 2012):

Assays:
Format in all cases: in vivo, mouse
[1] = tested on: G1H-G93A transgenic mice; test: Exercise tolerance test: extension reflex test; details: for Extension reflex test score: 5 mg/kg oral daily from 80th day (before onset), score 0-2
Protocol: (§1) The following five kinds of exercise tolerance tests were conducted every fifth day from the 70th day after birth to evaluate the ability to exercise in the respective exercise tolerance tests. That is, the days for the exercise tolerance tests were every fifth days, such as the 70th day, 75th day, 80th day, 85th day and so on, after birth. The exercise tolerance tests were conducted throughout the survival period, and the post-mortem evaluation was based on the definitions of the following five kinds of exercise tolerance tests.
As for extension reflex, extension of the hindlimbs is normally observed when a mouse is suspended in the air by its tail.
The evaluation of extension reflex test of the mice was performed based on the following criteria: Score 0=Extension reflex is recognized in both of the hindlimbs; Score 1=Extension reflex is recognized only one hindlimb; and Score 2=Extension reflex is not recognized in both of the hindlimbs. The post-mortem evaluation of the extension reflex test is defined as score 2.

[2] = tested on: G1H-G93A transgenic mice; test: Exercise tolerance test: inclined plane test; details: for Inclined plane test score: 5 mg/kg oral daily from 80th day (before onset), score 0-3, 5 mg/kg
Protocol: as §1
The apparatus used in the inclined plane test is an apparatus allowing a wooden board to be fixed at the respective angles of 45°, 65° and 80° from a horizontal plane. A mouse is placed in the posture of head-up position on the wooden board inclined at each angle and the mouse is allowed to maintain this position for 5 seconds without falling downward. In the evaluation method of the inclined plane test for each mouse, the number of seconds (TA seconds: 5 seconds or less) during which the position could be maintained without falling downward is measured at each of the angles (A) of 45°, 65° and 80°, and then the total sum value of the products of the angle (A) and the number of seconds (TA) during which the position could be maintained: Σ [Angle(A)×Time (TA)] is calculated. Since a normal mouse is capable of maintaining the position on the wooden board inclined to the respective angles for 5 seconds, the sum value of Σ [Angle(A)×Time (TA)] will be 80×5+65×5+45×5=950. The evaluation of the inclined plane test for the mouse was performed based on the following criteria: Score 0=950; Score 1=over 550 to less than 950; Score 2=over 225 to 550; and Score 3=225 and below. The post-mortem evaluation of the inclined plane test is defined as score 3.

[3] = tested on: G1H-G93A transgenic mice; test: Exercise tolerance test: footprint test; details: 5 mg/kg oral daily from 80th day (before onset), score 0-4
Protocol: as §1
Both hindlimbs of a mouse are dipped in a black ink bottle, and then the mouse is allowed to walk on white paper. The footprints of the two hindlimbs of the mouse after the walking are analyzed. […] The post-mortem evaluation of the footprint test is defined as score 4.

In the case of `N#Cc1cc(-c2n[nH]c(-c3ccncc3)n2)ccn1` [compound (b), 4-(5-pyridin-4-yl-1H-[1,2,4]triazol-3-yl)pyridine-2-carbonitrile], the “Extension reflex test score” value ([1]; 70th day after birth, 5 mg/kg) is reported as 0.0±0.0, the “Extension reflex test score” value ([1]; 75th day after birth, 5 mg/kg) is reported as 0.0±0.0 and the “Extension reflex test score” value ([1]; 80th day after birth, 5 mg/kg) is reported as 0.0±0.0. The “Extension reflex test score” value ([1]; 85th day after birth, 5 mg/kg) was 0.0±0.0, the “Extension reflex test score” value ([1]; 90th day after birth, 5 mg/kg) was 0.0±0.0 and the “Extension reflex test score” value ([1]; 95th day after birth, 5 mg/kg) was 0.0±0.0. For the same compound, the “Extension reflex test score” value ([1]; 100th day after birth, 5 mg/kg) was 0.0±0.0, the “Extension reflex test score” value ([1]; 105th day after birth, 5 mg/kg) was 0.0±0.0 and the “effect in extension reflex test as compared to placebo group” value ([1]; 105th, 110th, 115th and 120th day, 5 mg/kg oral daily from 80th day after birth, Mann-Whitney's U test) was “significant effects”. The “Extension reflex test score” value ([1]; 110th day after birth, 5 mg/kg) was 0.1±0.3, the “Extension reflex test score” value ([1]; 115th day after birth, 5 mg/kg) was 0.5±0.5 and the “Extension reflex test score” value ([1]; 120th day after birth, 5 mg/kg) was 1.3±0.5. The “Extension reflex test score” value ([1]; 125th day after birth, 5 mg/kg) was 1.8±0.4, the “Extension reflex test score” value ([1]; 130th day after birth) was 2.0 ± 0.0 and the “Extension reflex test score” value ([1]; 135th day after birth) was 2.0 ± 0.0. The “Extension reflex test score” value ([1]; 140th day after birth) was 2.0 ± 0.0, the “Extension reflex test score” value ([1]; from the 130th day to 140th day after birth) was 2.0±0.0 and the “Inclined plane test score” value ([2]; 70th day after birth) was 0.0±0.0. For the same compound, the “Inclined plane test score” value ([2]; 75th day after birth) was 0.0±0.0, the “Inclined plane test score” value ([2]; 80th day after birth) was 0.0±0.0 and the “Inclined plane test score” value ([2]; 85th day after birth) was 0.0±0.0. For the same compound, the “Inclined plane test score” value ([2]; 90th day after birth) was 0.0±0.0, the “Inclined plane test score” value ([2]; 95th day after birth) was 0.0±0.0 and the “Inclined plane test score” value ([2]; 100th day after birth) was 0.0±0.0. The “Inclined plane test score” value ([2]; 105th day after birth) was 0.0±0.0, the “Inclined plane test score” value ([2]; 110th day after birth) was 0.0±0.0 and the “effect in inclined plane test as compared to placebo group” value ([2]; 110th, 115th, 120th, 125th and 130th day, 5 mg/kg oral daily from 80th day after birth, Mann-Whitney's U test) was “significant effects”. For the same compound, the “Inclined plane test score” value ([2]; 115th day after birth) was 0.1±0.3, the “Inclined plane test score” value ([2]; 120th day after birth) was 0.6±0.7 and the “Inclined plane test score” value ([2]; 125th day after birth) was 1.4±0.7. For the same compound, the “Inclined plane test score” value ([2]; 130th day after birth) was 2.3±0.7, the “Inclined plane test score” value ([2]; 135th day after birth) was 2.9±0.3 and the “Inclined plane test score” value ([2]; 140th day after birth) was 3.0±0.0. For the same compound, the Footprint test score ([3]; 70th day after birth) was 0.0±0.0, the Footprint test score ([3]; 75th day after birth) was 0.0±0.0 and the Footprint test score ([3]; 80th day after birth) was 0.0±0.0. For the same compound, the Footprint test score ([3]; 85th day after birth) was 0.0±0.0, the Footprint test score ([3]; 90th day after birth) was 0.0±0.0 and the Footprint test score ([3]; 95th day after birth) was 0.0±0.0. It also gave a Footprint test score ([3]; 100th day after birth) of 0.0±0.0, a Footprint test score ([3]; 105th day after birth) of 0.0±0.0 and a Footprint test score ([3]; 110th day after birth) of 0.1±0.3. It also gave a Footprint test score ([3]; 115th day after birth) of 0.6±0.7, a Footprint test score ([3]; 120th day after birth) of 1.8±1.0 and a Footprint test score ([3]; 125th day after birth) of 2.8±0.4. It also gave a Footprint test score ([3]; 130th day after birth) of 3.4±0.5, a Footprint test score ([3]; 135th day after birth) of 3.9±0.3 and a Footprint test score ([3]; 140th day after birth) of 4.0±0.0.
